Patent publication US20260137696A1, “Compositions Comprising an Inhibitor of Galectin-3” (University of Liverpool, priority 2023, published 2026)

Assays:
[1] = system: SW620^Gal3− cells; assay: Tumour cell metastatic spread in mice (intravenous inoculation); assay type: in vivo, Balb/c nude mice; conditions: 10 mg/kg/day subcutaneously; Galectin-3-suppressed SW620^Gal3− cells
Description: (§1) The compound of Formula I effect on cancer metastasis was assessed in Balb/c nude mice. Luciferase-transfected, Galectin-3-expressing colon cancer SW620^Gal3+ and Galectin-3-suppressed SW620^Gal3− cells were inoculated to mice intravenously and the compound of Formula I was administrated subcutaneously, 10 mg/kg/day for 3 consecutive days in the first week and then once every week. Metastasis was monitored by IVIS imaging. […] The animals were sacrificed five weeks after tumour cell inoculation and the number of metastasis nodules on the surface of the animal lungs were quantified (FIG. 12B). Administration of the compound of Formula I caused 88% reduction of lung metastasis of Galectin-3-expressing SW620^Gal3+ cells but had little effect on Galectin-3-suppressed SW620^Gal3− cells;
as §1, with “for 5” for “for 3”, “first” for “first week and then once every”, “Galectin-3-suppressed SW620^Gal3 cells.” for “Galectin-3-suppressed SW620^Gal3− cells;”
(§2) Female Balb/c nude mice aged 6-7 weeks were purchased from Charles River Laboratories (Margate, UK) and maintained in specific pathogen-free conditions with a 12:12 hour light:dark cycle. All animal studies were conducted with UK Home Office and local ethics committee approval.
(§3) Thirty-two mice were randomly divided into four groups (A to D). […] Tumour number on the surface of the lungs was assessed using a dissection microscope.

[2] = system: SW620^Gal3+ cells; assay: as above; assay type: in vivo, Balb/c nude mice; conditions: 10 mg/kg/day subcutaneously
Description: as §1
as §1, with “for 5” for “for 3”, “first” for “first week and then once every”, “Galectin-3-suppressed SW620^Gal3 cells.” for “Galectin-3-suppressed SW620^Gal3− cells;”
as §2, §3

C[C@H]1COc2c(N3CCN(C)CC3)c(F)cc3c(=O)c(C(=O)NNc4ccc(N)cc4)cn1c23 [Formula I]
effect on lung metastasis [1]: little effect
lung metastasis in IVIS imaging ([2]; 14 days after tumour cell inoculation): Substantially lower
reduction of lung metastasis (metastasis nodules on lung surface) ([2]; five weeks after tumour cell inoculation): 88%
